Experimental findings from BindingDB's records for PubMed 34752953 (Zhengzhou University, 2022) are described below.

This experiment concerns the target Indoleamine 2,3-dioxygenase 1 (Homo sapiens, UniProt P14902). Nature of the experiment: Inhibition of IDO1 (unknown origin).

Sequence of Indoleamine 2,3-dioxygenase 1 (P14902 whole entry): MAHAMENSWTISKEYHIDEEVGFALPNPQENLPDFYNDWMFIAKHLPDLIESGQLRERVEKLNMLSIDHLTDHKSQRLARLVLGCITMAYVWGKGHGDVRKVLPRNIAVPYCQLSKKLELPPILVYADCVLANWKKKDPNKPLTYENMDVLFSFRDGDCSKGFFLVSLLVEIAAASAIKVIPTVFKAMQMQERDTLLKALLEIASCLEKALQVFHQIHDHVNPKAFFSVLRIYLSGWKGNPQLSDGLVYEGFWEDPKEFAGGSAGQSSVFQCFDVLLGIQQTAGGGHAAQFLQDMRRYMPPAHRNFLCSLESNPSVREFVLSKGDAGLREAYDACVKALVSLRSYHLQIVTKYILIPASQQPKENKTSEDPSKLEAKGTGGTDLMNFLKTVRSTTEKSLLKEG

In turn, `O[C@@H](C[C@H]1c2sccc2-c2cncn21)C1CCC(F)(F)CC1` gave an IC50 of 11 nM.

As a reminder, the IC50 is the concentration at which inhibition is half-maximal.
